Test results: ChEMBL document CHEMBL6114972, “Proteolysis targeting chimera of BI-2536 induces potent dual degradation of PLK1 and BET proteins” (Bioorg Med Chem, 2025)
The source made the active and inactive calls. The calls are words filed in the database; no cut-off is given here.

Key:
K562 = experiment: Cytotoxicity against human K562 cells assessed as reduction in cell viability measured after 3 days by CCK-8 assay; type: functional, cell-based; details: K562, 72 h
HeLa [1] = experiment: Cytotoxicity against human HeLa cells assessed as reduction in cell viability measured after 3 days by CCK-8 assay; type: functional, cell-based; details: 72 h
MDA-MB-231 = experiment: Cytotoxicity against human MDA-MB-231 cells assessed as reduction in cell viability measured after 3 days by CCK-8 assay; type: functional, cell-based; details: MDA-MB-231, 72 h
CWR22R = experiment: Cytotoxicity against human 22Rv1 cells assessed as reduction in cell viability measured after 3 days by CCK-8 assay; type: functional, cell-based; details: 22Rv1, 72 h
[2] = target: von Hippel-Lindau disease tumor suppressor/Serine/threonine-protein kinase PLK1 (Homo sapiens) (UniProt P53350+P40337); experiment: Protac activity at VHL/PLK1 in human HeLa cells assessed as PLK1 degradation at 500 nM measured after 12 hrs by Western blot analysis; type: cell-based
[3] = target: von Hippel-Lindau disease tumor suppressor/Bromodomain-containing protein 4 (Homo sapiens) (UniProt O60885+P40337); experiment: Protac activity at VHL/BRD4 in human HeLa cells assessed as BRD4 degradation at 500 nM measured after 12 hrs by Western blot analysis; type: cell-based
HeLa [4] = experiment: Induction of degradation of PLK1 in human HeLa cells at 500 nM measured after 12 hrs by Western blot analysis; type: cell-based
HeLa [5] = experiment: Induction of degradation of BRD4 in human HeLa cells at 500 nM measured after 12 hrs by Western blot analysis; type: cell-based
[6] = target: T1, Protein cereblon/Serine/threonine-protein kinase PLK1 (Homo sapiens, UniProt P53350+Q96SW2); experiment: Protac activity at CRBN/PLK1 in human 22Rv1 cells assessed as PLK1 degradation at 5 to 10 nM measured after 36 hrs by Western blot analysis; type: cell-based; details: dose 5-10 nM
[7] = target: T1, Protein cereblon/Serine/threonine-protein kinase PLK1; experiment: Protac activity at CRBN/PLK1 in human 22Rv1 cells assessed as PLK1 degradation at 10 nM measured after 36 hrs by Western blot analysis; type: cell-based
[8] = target: T2, Protein cereblon/Bromodomain-containing protein 4 (Homo sapiens, UniProt O60885+Q96SW2); experiment: Protac activity at CRBN/BRD4 in human HeLa cells assessed as BRD4 degradation at 500 nM measured after 12 hrs by Western blot analysis; type: cell-based
[9] = target: T1, Protein cereblon/Serine/threonine-protein kinase PLK1; experiment: Protac activity at CRBN/PLK1 in human HeLa cells assessed as PLK1 degradation at 500 nM measured after 12 hrs by Western blot analysis; type: cell-based
[10] = target: T2, Protein cereblon/Bromodomain-containing protein 4; experiment: Protac activity at CRBN/BRD4 in human HeLa cells assessed as BRD4 degradation at 20 nM measured after 24 hrs by Western blot analysis; type: cell-based

T2 sequence (Q96SW2 whole entry, looked up, other chains not shown): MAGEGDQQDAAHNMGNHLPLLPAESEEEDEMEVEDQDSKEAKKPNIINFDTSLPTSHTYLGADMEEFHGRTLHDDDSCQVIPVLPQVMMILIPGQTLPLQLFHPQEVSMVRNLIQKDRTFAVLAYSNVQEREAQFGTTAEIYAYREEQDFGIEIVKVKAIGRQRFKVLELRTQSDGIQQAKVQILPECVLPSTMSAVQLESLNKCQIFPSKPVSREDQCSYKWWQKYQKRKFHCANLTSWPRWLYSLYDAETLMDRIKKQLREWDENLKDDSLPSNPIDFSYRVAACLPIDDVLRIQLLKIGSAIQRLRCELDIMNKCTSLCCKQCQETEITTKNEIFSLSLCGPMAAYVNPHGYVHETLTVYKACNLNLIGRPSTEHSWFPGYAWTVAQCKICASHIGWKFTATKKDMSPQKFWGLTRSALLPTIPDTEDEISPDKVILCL
T1 sequence (P53350 2-603 limits assumed): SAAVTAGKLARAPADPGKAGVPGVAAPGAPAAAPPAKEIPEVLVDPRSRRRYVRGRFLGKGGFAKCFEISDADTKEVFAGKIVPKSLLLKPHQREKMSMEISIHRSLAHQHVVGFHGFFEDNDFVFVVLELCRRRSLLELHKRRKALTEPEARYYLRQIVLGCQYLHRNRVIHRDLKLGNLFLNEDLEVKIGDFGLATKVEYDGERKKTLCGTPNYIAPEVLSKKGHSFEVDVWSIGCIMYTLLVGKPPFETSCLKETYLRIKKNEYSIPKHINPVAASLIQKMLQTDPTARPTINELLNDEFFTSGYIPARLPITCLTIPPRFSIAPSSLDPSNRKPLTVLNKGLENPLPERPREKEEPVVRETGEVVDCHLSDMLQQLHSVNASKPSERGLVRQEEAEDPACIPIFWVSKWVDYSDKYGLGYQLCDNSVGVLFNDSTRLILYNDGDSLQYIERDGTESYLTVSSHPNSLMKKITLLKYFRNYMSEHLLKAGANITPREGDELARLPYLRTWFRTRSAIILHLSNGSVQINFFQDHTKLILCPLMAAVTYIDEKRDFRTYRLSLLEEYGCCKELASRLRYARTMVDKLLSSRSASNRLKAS
T1 sequence (Q96SW2 whole entry partner): as the sequence (Q96SW2 whole entry, looked up, other chains not shown) above
Sequence of von Hippel-Lindau disease tumor suppressor/Serine/threonine-protein kinase PLK1 (Homo sapiens) (P40337 whole entry, looked up): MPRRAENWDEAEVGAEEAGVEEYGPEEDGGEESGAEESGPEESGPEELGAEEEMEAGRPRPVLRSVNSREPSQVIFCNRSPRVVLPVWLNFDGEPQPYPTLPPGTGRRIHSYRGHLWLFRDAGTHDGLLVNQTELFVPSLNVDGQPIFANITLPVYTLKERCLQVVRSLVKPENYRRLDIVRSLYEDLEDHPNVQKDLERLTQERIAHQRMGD
Sequence of von Hippel-Lindau disease tumor suppressor/Serine/threonine-protein kinase PLK1 (Homo sapiens) (P53350 whole entry, looked up): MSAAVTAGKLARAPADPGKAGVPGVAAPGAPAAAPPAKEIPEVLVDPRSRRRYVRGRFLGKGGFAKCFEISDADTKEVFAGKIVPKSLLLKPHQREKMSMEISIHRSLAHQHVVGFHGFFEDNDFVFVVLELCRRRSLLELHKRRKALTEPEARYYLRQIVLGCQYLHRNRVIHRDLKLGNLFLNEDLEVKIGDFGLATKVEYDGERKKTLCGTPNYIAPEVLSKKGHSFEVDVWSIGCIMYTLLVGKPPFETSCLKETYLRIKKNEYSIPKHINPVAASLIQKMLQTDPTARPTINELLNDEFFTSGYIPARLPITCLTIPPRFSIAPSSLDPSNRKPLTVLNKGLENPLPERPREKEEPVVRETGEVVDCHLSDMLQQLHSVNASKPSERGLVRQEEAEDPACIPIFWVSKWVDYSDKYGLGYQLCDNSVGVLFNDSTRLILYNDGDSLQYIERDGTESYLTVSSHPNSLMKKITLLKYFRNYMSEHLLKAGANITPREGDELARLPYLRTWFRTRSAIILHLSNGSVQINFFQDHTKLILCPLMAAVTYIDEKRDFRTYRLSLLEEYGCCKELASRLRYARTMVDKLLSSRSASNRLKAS
Sequence of von Hippel-Lindau disease tumor suppressor/Bromodomain-containing protein 4 (Homo sapiens) (P40337 whole entry, looked up, other chains not shown): as the sequence (P40337 whole entry, looked up) above

Row | SMILES | IC50 (K562) [nM] | IC50 (HeLa [1]) [nM] | IC50 (MDA-MB-231) [nM] | IC50 (CWR22R) [nM] | Activity [2] [%] | Activity [3] [%] | Activity (HeLa [4]) [%] | Activity (HeLa [5]) [%] | Activity [6] | Activity [7] | Activity [8] [%] | Activity [9] [%] | Activity [10]
1 | CC[C@@H]1C(=O)N(C)c2cnc(Nc3ccc(C(=O)NC4CCN(CCCCCC(=O)N[C@H](C(=O)N5C[C@H](O)C[C@H]5C(=O)NCc5ccc(-c6scnc6C)cc5)C(C)(C)C)CC4)cc3OC)nc2N1C1CCCC1 | > 1000 | 398 | > 1000 | > 1000 | 0.3 | 7 | – | – | – | – | – | – | –
2 | CC[C@@H]1C(=O)N(C)c2cnc(Nc3ccc(C(=O)NC4CCN(C)CC4)cc3OC)nc2N1C1CCCC1 | – | – | – | – | – | – | 0 | 0 | – | – | – | – | –
3 | CC[C@@H]1C(=O)N(C)c2cnc(Nc3ccc(C(=O)NC4CCN(CCCCCCC(=O)N[C@H](C(=O)N5C[C@H](O)C[C@H]5C(=O)NCc5ccc(-c6scnc6C)cc5)C(C)(C)C)CC4)cc3OC)nc2N1C1CCCC1 | > 1000 | 193 | > 1000 | > 1000 | 0 | 10 | – | – | – | – | – | – | –
4 | CC[C@@H]1C(=O)N(C)c2cnc(Nc3ccc(C(=O)NC4CCN(CCCCCCCCCC(=O)N[C@H](C(=O)N5C[C@H](O)C[C@H]5C(=O)NCc5ccc(-c6scnc6C)cc5)C(C)(C)C)CC4)cc3OC)nc2N1C1CCCC1 | 66 | 52 | 928 | 225 | 8 | 50 | – | – | – | – | – | – | –
5 | Cc1ncsc1-c1ccc([C@H](C)NC(=O)[C@@H]2C[C@@H](O)CN2C(=O)[C@@H](NC(=O)COCCCOCCNC(=O)C[C@@H]2N=C(c3ccc(Cl)cc3)c3c(sc(C)c3C)-n3c(C)nnc32)C(C)(C)C)cc1 | – | – | – | – | – | – | – | – | inactive | – | – | – | –
6 | CC[C@@H]1C(=O)N(C)c2cnc(Nc3ccc(C(=O)NC4CCN(CCCCCCCC(=O)N[C@H](C(=O)N5C[C@H](O)C[C@H]5C(=O)NCc5ccc(-c6scnc6C)cc5)C(C)(C)C)CC4)cc3OC)nc2N1C1CCCC1 | 527 | 158 | > 1000 | > 1000 | 6 | 22 | – | – | – | – | – | – | –
7 | Cc1ncsc1-c1ccc(CNC(=O)[C@@H]2C[C@@H](O)CN2C(=O)[C@@H](NC(=O)CCCCCCCCCCNC(=O)c2cc3c(cc2CS(C)(=O)=O)-c2cn(C)c(=O)c4[nH]cc(c24)CN3c2ncc(F)cc2F)C(C)(C)C)cc1 | – | – | – | – | – | – | – | – | – | inactive | – | – | –
8 | CC[C@@H]1C(=O)N(C)c2cnc(Nc3ccc(C(=O)NC4CCN(CCCCCCC(=O)Nc5cccc6c5C(=O)N(C5CCC(=O)NC5=O)C6=O)CC4)cc3OC)nc2N1C1CCCC1 (some centres not stated) | 89 | 54 | 489 | 48 | – | – | – | – | – | – | 94 | 18 | Active
9 | CC[C@@H]1C(=O)N(C)c2cnc(Nc3ccc(C(=O)NC4CCN(CCCCCCCCCC(=O)Nc5cccc6c5C(=O)N(C5CCC(=O)NC5=O)C6=O)CC4)cc3OC)nc2N1C1CCCC1 (some centres not stated) | 133 | 125 | 527 | 63 | – | – | – | – | – | – | 93 | 7 | Active
